Laboratory results published in US8937065B2, “Compositions and methods for modulating a kinase” (Clevexel Pharma, priority 2011, dated 2015).

Assays:
JAK3 pathway = assay: Cell based JAK3 pathway inhibition (STAT6-bla RA1 cells, IL-4 activated)
Protocol: 32 μL of the cell suspension (25,000 cells) was added to each well of a 384-well TC-Treated assay plate. Cells in Assay Media were incubated for 16-24 hours in the plate at 37° C./5% CO2 in a humidified incubator. 4 μL of a 10× serial dilution of a compound of the invention was added to appropriate wells of the plate and pre-incubated at 37° C./5% CO2 in a humidified incubator with cells for 30 minutes. 4 μL of 10× control activator IL-4 at the predetermined EC80 concentration was added to wells containing the compound of the invention. The plate was incubated for 5 hours at 37° C./5% CO2 in a humidified incubator. 8 μL of 1 μM Substrate Loading Solution was added to each well and the plate was incubated for 2 hours at room temperature. The plate was read on a fluorescence plate reader.

[1] = 6-day maximum tolerated dose safety study in female ICR nude mice; type: in vivo
Protocol: Compounds of the invention are safe for administration. For example, excellent safety data was obtained in a 6-day maximum tolerated dose study at 100 mg/kg and 300 mg/kg of compound 7A, PO administered to six to eight-week old female ICR nude mice.

[2] = system: B cell receptor NFAT-bla RA1; assay: B cell receptor NFAT-bla RA1 inhibition (goat anti-human IgM stimulated, Ramos cells); conditions: read-out: IC50 B cells mechanism-based: Ramos cells IgM stimulated NFAT activity
Protocol: The inhibition of B cell receptor NFAT-bla RA 1 (activated by goat anti-human IgM, which stimulates the SYK signaling pathway) by several compounds was determined using the Screening Protocol and Assay Conditions (Invitrogen, Madison, Wis.). The assays were performed according to manufacturer's protocols. See Example 4, Cell-line Specific Protocols B cell receptor activity in Ramos cells for details.
Mechanism-based inhibition assays using compound 7A (Table 1) were performed using GeneBLAzer® Technology (Invitrogen Corporation), according to manufacturer specifications. […] In this state, excitation of the coumarin results in fluorescence resonance energy transfer to the fluorescein moiety and emission of green light. […] Excitation of the coumarin in the presence of Beta-lactamase activity results in a blue fluorescence signal. […]
An activator assay screen was run to obtain the EC80 concentration of the known activator to add in step 3. • 1. […] 4 μL of the EC80 concentration of activator, as determined in an Activator assay, was added to all wells containing compound and known inhibitor to bring the final assay volume to 40 μL. • 4. […] The assay plate was read on a fluorescence plate reader (Tecan Safire) and the data is analyzed. […]
NFAT-bla RA1 cells were thawed. […] The plate was read on a fluorescence plate reader.

[3] = 100 mg/kg and 300 mg/kg PO, 6-day study, female ICR nude mice

Q: What does the source list for `O=C(CN1CCOCC1)Nc1cccc(-c2nc(-c3c[nH]c(C(=O)N4CCCC4)c3)cs2)c1` [7A, 2-morpholino-N-(3-(4-(5-(pyrrolidine-1-carbonyl)-1H-pyrrol-3-yl)thiazol-2-yl)phenyl)acetamide]?
A: IC50 (JAK3 pathway; STAT6-bla RA1 cells, IL-4 at EC80): 110 to 1000 nM; Emax (JAK3 pathway; cell based JAK3 pathway inhibition, maximal inhibition, read-out: Max % Inh): 75%; change in food consumption [1, 3]: no change in food consumption; clinical observation [1, 3]: no abnormalities in clinical observation; necropsy (internal and external) [1, 3]: normal; weight loss [1, 3]: no weight loss; Individual food consumption (g) Day 1 ([1]; PO-High 300 mg/kg): 4.45 g; Individual food consumption (g) Day 6 ([1]; PO-High 300 mg/kg): 5.13 g; Individual food consumption (g) Day 1 ([1]; PO-Low 100 mg/kg): 4.61 g; Individual food consumption (g) Day 6 ([1]; PO-Low 100 mg/kg): 5.44 g; IC50 [2]: 124 nM
